Source: US5189169A (priority 1991, dated 1993)

What was measured:
Conditions in all cases: 2.24 kg/ha, 2-3 weeks after treatment
[1] = test system: four grassy weeds: wild oat, watergrass, green foxtail and crabgrass; test: Pre-emergence herbicidal activity, grassy weeds (Table III); type: in vivo
Method: (§1) The herbicidal effect was observed by comparing the extent of weed control in test flats treated with the compounds against that occurring in similar non-treated control flats. All were applied at 3.57 lb/A (4 kg/ha) to pre-emergence and post-emergence screening flats. An 80 gal/A (748.3 1/ha) spray volume was utilized. Post-emergence flats were seeded 12 days prior to treatment. Pre-emergence flats were seeded one day prior to treatment. Overhead watering of pre-emergence flats and soil surface watering of post-emergence flats, so as to avoid wetting the foliage, were carried out for the duration of the test.
(§2) Weed seeds were planted in a flat at a seed depth of 0.5 inch (1.3 cm). Soil for flats was prepared using loam soil fortified with 17-17-17 fertilizer (N-P2 O5 -K2 O on a weight basis) and Captan 80W fungicide. The test weeds were as follows:
(§3) The spray solutions were prepared by dissolving 240 mg of test compound in 20 ml of acetone containing 1% polyoxyethylene sorbitan monolaurate emulsifier, then adding 20 ml of water to the resulting solution. The spray solutions were applied using a linear spray table. Pre-emergence flats are raised to the level of the post-emergence foliage canopy by setting the flats on a wooden block.
(§4) The degree of weed control was visually assessed and recorded as percentage control compared to the growth of the same species in an untreated check flat of the same age. The rating scale ranges from 0 to 100%, where 0 equals no effect with plant growth equal to the untreated control, and 100 equals complete kill.
(§5) Compounds 68 to 145 in Table I were tested generally similarly to Compounds No. 1 to 67 with the following differences: The rate of application was 2 lb/acre (2.24 kg/ha), no 6-day evaluations were made, and the weeds were:
(§6) Four grassy weeds: wild oat, watergrass, green foxtail and crabgrass (Digitaria sanguinalis);
(§7) Ratings were taken 2-3 weeks after treatment.

[2] = test system: three broadleaf weeds: wild mustard, redroot pigweed and curly dock; test: Pre-emergence herbicidal activity, broadleaf weeds (Table III); type: in vivo, Brassica kaber, Amaranthus retroflexus, Rumex crispus
Method: as §1, §2, §3, §4, §5
(§8) Three broadleaf weeds: wild mustard, redroot pigweed (Amaranthus retroflexus) and curly dock (Rumex crispus).
as §7

[3] = test system: four grassy weeds: wild oat, watergrass, green foxtail and crabgrass; test: Post-emergence herbicidal activity, grassy weeds (Table III); type: in vivo
Method: as §1, §2, §3, §4, §5, §6, §7

[4] = test system: three broadleaf weeds: wild mustard, redroot pigweed and curly dock; test: Post-emergence herbicidal activity, broadleaf weeds (Table III); type: in vivo, Brassica kaber, Amaranthus retroflexus, Rumex crispus
Method: as §1, §2, §3, §4, §5, §8, §7

Row | SMILES | % Control, Pre-Emergence, GR Avg. [1] | % Control, Pre-Emergence, BL Avg. [2] | % Control, Post-Emergence, GR Avg. [3] | % Control, Post-Emergence, BL Avg. [4]
1 | CCCCN(CCCC)P(=O)(SC(C)CC)N(CCC)CCC (stereo not drawn) [Compound 127] | 0% | 0% | 59% | 99%
2 | CCCCCSP(=O)(N(CCCC)CCCC)N(CCCC)CCCC [Compound 132] | 8% | 20% | 40% | 67%
3 | CCCCSP(=O)(N(CCC)CCC)N(CCCC)CCCC (stereo not drawn) [Compound 126] | 0% | 0% | 61% | 86%
4 | C=CCN(CC=C)P(=O)(SCC)N(CCC)CCC (stereo not drawn) [Compound 75] | 0% | 0% | 62% | 98%
5 | C=CCSP(=O)(N(CCC)CCC)N(CCCC)CCCC (stereo not drawn) [Compound 129] | 0% | 0% | 69% | 86%
6 | CCCCSP(=O)(N(CC)CCCC)N(CCC)CCC (stereo not drawn) [Compound 90] | 0% | 7% | 86% | 100%
7 | CCCCCSP(=O)(N(CCC)CCC)N(CCCC)CCCC (stereo not drawn) [Compound 130] | 0% | 16% | 59% | 97%
8 | CCCCN(CCCC)P(=O)(SC(C)(C)C)N(CCC)CCC (stereo not drawn) [Compound 128] | 0% | 0% | 38% | 80%
9 | CCCN(CCC)P(=O)(SC(C)C)N(CCC)CCC [Compound 79] | 35% | 50% | 85% | 99%
10 | CCCCN(CCCC)P(=O)(SCC)N(CCCC)CCCC [Compound 82] | 0% | 0% | 75% | 99%
11 | CCCCN(CCCC)P(=O)(SC(C)C)N(C)C (stereo not drawn) [Compound 109] | 23% | 20% | 85% | 98%
12 | C=CCSP(=O)(N(CC)CCCC)N(CCC)CCC (stereo not drawn) [Compound 115] | 0% | 0% | 70% | 86%
13 | C=CCN(CC=C)P(=O)(SCCCC)N(CCC)CCC (stereo not drawn) [Compound 77] | 0% | 0% | 53% | 99%
14 | CCCN(CCC)P(=O)(SCC)N(C)c1ccccc1 (stereo not drawn) [Compound 119] | 0% | 0% | 30% | 67%
15 | CCCCN(CCCC)P(=O)(SC(C)CC)N(C)C (stereo not drawn) [Compound 111] | 10% | 10% | 72% | 99%
16 | CCCCN(CCCC)P(=O)(SCCC)N(C)C (stereo not drawn) [Compound 108] | 15% | 13% | 76% | 98%
17 | CCCCN(CC)P(=O)(SC(C)C)N(CCC)CCC (stereo not drawn) [Compound 91] | 0% | 3% | 84% | 99%
18 | CCCSP(=O)(N(CCC)CCC)N(CCC)CCC [Compound 71] | 27% | 57% | 64% | 99%
